In ChEMBL document CHEMBL1149581, “Colon-specific, mutual azo prodrug of 5-aminosalicylic acid with L-tryptophan: synthesis, kinetic studies and evaluation of its mitigating effect in trinitrobenzenesulfonic acid-induced colitis in rats” (Bioorg Med Chem, 2007):
Calls of active or inactive are those of the source. The calls are words filed in the database; no cut-off is given here.

What was measured:
Rattus norvegicus [1] = assay: Ulcerogenic activity in Wistar rat at 2290 mg/kg, po by cold stress method relative to control; type: toxicity, organism-based; parameters: dose 2290 mg/kg, route oral; conditions: in vivo
[2] = Partition coefficient, log P in n-octanol/phosphate buffer at pH 7.4; type: physicochemical
Rattus norvegicus [3] = assay: Effect on TNBS-induced experimental colitis in rectally dosed Sprague-Dawely rat assessed as colon to body weight ratio relative to control; type: functional
Rattus norvegicus [4] = assay: Ulcerogenic activity in Wistar rat at 2829 mg/kg, po by cold stress method relative to control; type: toxicity, organism-based; parameters: dose 2829 mg/kg, route oral; conditions: in vivo
Rattus norvegicus [5] = assay: Decrease in TNBS-induced colonic damage in po dosed Sprague-Dawely rat; type: functional, organism-based
[6] = Aqueous solubility of the compound; type: physicochemical
Rattus norvegicus [7] = assay: Effect on TNBS-induced experimental colitis in po dosed Sprague-Dawely rat assessed as colon to body weight ratio after 5 days relative to control; type: functional
Rattus norvegicus [8] = assay: Ulcerogenic activity in Wistar rat at 3000 mg/kg, po by cold stress method relative to control; type: toxicity, organism-based; parameters: dose 3000 mg/kg, route oral; conditions: in vivo

SMILES | UI (Rattus norvegicus [1]) | logD [2] | Ratio (Rattus norvegicus [3]) | UI (Rattus norvegicus [4]) | Activity (Rattus norvegicus [5]) | solubility [6] [mg/mL] | Ratio (Rattus norvegicus [7]) | UI (Rattus norvegicus [8])
Nc1ccc(O)c(C(=O)O)c1 [MESALAMINE] | 59.6 | 0.64 | – | – | – | – | – | –
O=C([O-])c1cc(/N=N/C(Cc2c[nH]c3ccccc23)C(=O)[O-])ccc1O.[Na+].[Na+] (centres undefined) | – | 0.26 | 0.0073 | 13 | Active | 280 | – | –
O=C(O)c1cc(/N=N/c2ccc(S(=O)(=O)Nc3ccccn3)cc2)ccc1O [SULFASALAZINE] | – | – | – | – | – | – | 0.008 | 9
